Measured values from patent publication US11938128B2, “Small molecule BAX inhibitors and uses thereof” (Albert Einstein College of Medicine, priority 2017, dated 2024).
Read-outs that look alike come from different tables or passages of the source. One block for each compound: values may come before it.

Experiments:
[1] = molecular target: BAX (Homo sapiens, UniProt Q07812); assay: liposome release assay, tBID-induced BAX activation in liposomal membranes; type: biochemical
From the text: FIG. 8. BAI compounds tested in BAX inhibition assay using tBID-induced BAX activation in liposomal membranes.
These compounds were hypothesized, but never shown, to work through BAX inhibition (19, 20). Accordingly, it was first investigated whether several of these small molecules inhibit BAX-mediated permeabilization of artificial membranes of similar lipid composition to the outer mitochondrial membrane (OMM). A liposome release assay (21), in which liposomes that contain a fluorophore are created, was used. Incorporation of tBID-activated BAX into the liposome membrane stimulates release of the fluorophore, providing a system to study BAX-mediated membrane permeabilization in isolation of other mitochondrial and cellular factors.
IC50 were predicted based on of “Normalized inhibition values” correlated with measured IC50 values.

[2] = molecular target: recombinant, purified BAX (Homo sapiens, UniProt Q07812); assay: BAX binding by 1H-NMR and 15N-1H HSQC NMR; settings: not shown
[3] = test system: neonatal rat cardiomyocytes (NRCM); assay: hypoxia-induced death of primary neonatal cardiomyocytes (calcein AM / ethidium homodimer); type: cell-based; settings: for inhibition of hypoxia-induced neonatal cardiomyocyte death: percentage of EthD positive cells
Experimental: (§1) FIG. 6A-6C. […] Cell death was assessed using calcein AM (alive) and ethidium homodimer (dead) staining. (C) BAI1 inhibits hypoxia-induced loss of inner mitochondrial membrane potential (Δψm) in neonatal cardiomyocytes.
FIG. 20A-20B. […] Quantification of percentage of TUNEL positive cells. […] BAI-1 dose response. Percentage of dead cells represents percentage of ethidium homodimer-1 (EthD) positive cells.
FIG. 21A-21C. BAI-A1, BAI-A2 and BAI-A21 inhibit cardiomyocyte necrotic cell death. NRCM were pre-treated with varying concentrations of BAI-A1 (A), BAI-A2 (B) or BAI-A21 (C) and cultured under normoxic or hypoxic conditions. Percentage of dead cells represents percentage of EthD positive cells.

[4] = test system: Adult rat cardiomyocytes; assay: hypoxia/reoxygenation-induced death of adult cardiomyocytes; type: cell-based
Experimental: as §1
FIG. 22A-22B. […] Percentage of dead cells represents percentage of EthD positive cells.

[5] = plasma protein binding, mouse plasma; type: in vitro ADME
[6] = molecular target: T1, BAX (Mus musculus, UniProt Q07813); assay: BAX activation during MI/R in vivo, 6A7 antibody immunostaining; settings: 45 min ischemia/6 h reperfusion, 6A7 immunostaining
T1 construct: from tissue; host or cells: heart (myocardium) after 45 min ischemia/6 h reperfusion
Experimental: Accordingly, the ability of BAI-A1 to inhibit BAX activation during MI/R was tested in vivo (FIG. 7). […] The pharmacokinetics of BAI-A1 were measured in the mouse by injecting 1 mg/kg into a cohort of mice and harvesting plasma and heart tissue 0, 1, 6, and 24 h.

[7] = pharmacokinetics of BAI-A1 in the mouse; type: in vivo; settings: other: injection (type of injection not given), 1 mg/kg
Experimental: Accordingly, the ability of BAI-A1 to inhibit BAX activation during MI/R was tested in vivo (FIG. 7). […] This was assessed following 45 min ischemia/6 h reperfusion, the time point that BAX is activated maximally in the absence of drug. It was concluded that BAI-A1 can access myocardial cells and is effective at inhibiting BAX activation during MI/R in vivo. The pharmacokinetics of BAI-A1 were measured in the mouse by injecting 1 mg/kg into a cohort of mice and harvesting plasma and heart tissue 0, 1, 6, and 24 h.

[8] = pharmacokinetic properties, half-life in plasma; type: in vivo
[9] = molecular target: T1, BAX; assay: STS-induced BAX translocation to mitochondria (immunostaining of BAX puncta); type: cell-based; settings: data not shown
Experimental: A key event in BAX activation is exposure of α helix 9 containing a transmembrane domain that inserts tightly into the outer mitochondrial membrane (OMM). BAX insertion into the OMM can be assessed by treating isolated mitochondria with strong alkali, which separates loosely attached proteins from mitochondria but fails to extract membrane-inserted proteins. […] One important result of BAX conformational activation is its translocation from cytosol to mitochondria. […] Translocation was assessed by immunostaining for mitochondrial BAX puncta. […] (Data not shown.)

[10] = test system: mouse embryonic fibroblasts; assay: TNFα-induced BAX-mediated apoptotic cell death; type: cell-based; settings: data not shown
[11] = plasma protein binding, rats; type: in vitro ADME; settings: rat
[12] = BAI-A22 pharmacokinetics in rats, non-compartmental analysis; type: in vivo; settings: rat, plasma, iv, male Sprague Dawley rats, 1 mg/kg intravenously, NCA
Experimental: FIG. 11A-11B. BAI-A22 pharmacokinetics. BAI-A22 was injected intravenously in male Sprague Dawley® rats at 1 mg/kg dose and blood plasma and heart tissue were collected at different time points, and drug levels measured by LC-MS/MS. (A) Average BAI-A22 concentrations in blood plasma. (B) Average BAI-A22 concentrations in heart tissue.
Pharmacokinetic parameters from non-compartmental analysis using WinNonLin software. C0: maximum plasma concentration extrapolated to t=0; tmax: time of maximum plasma concentration; t1/2: half-life; MRTlast: mean residence time, calculated to the last observable time point; CL: clearance; Vss: steady state volume of distribution; AUClast: area under the curve, calculated to the last observable time point; AUC∞: area under the curve, extrapolated to infinity. Materials and Methods for the Chemical Syntheses

[13] = test system: mouse embryonic fibroblasts; assay: apoptosis in mouse embryonic fibroblasts (FIG. 18); type: cell-based; settings: doxorubicin-induced per text, STS or ABT-737 per legend
From the text: FIG. 18. […] Apoptosis was induced with either staurosporine (STS) or pro-apoptotic ABT-737 drug.

[14] = acute doxorubicin heart failure model in mice; type: in vivo, mouse; settings: doxorubicin 20 mg/kg i.p. single; inhibitor 2 mg/kg i.p. single
[15] = chronic doxorubicin-induced cardiomyopathy mouse model; type: in vivo; settings: doxorubicin 3 mg/kg IP x8, inhibitor 2 mg/kg
From the text: FIG. 25A-25B. […] (A) Hearts were collected from mice in the chronic doxorubicin model and sectioned to stain for the apoptosis marker, TUNEL. Percentage of TUNEL positive nuclei per field. (B) Hearts were collected from mice in the chronic doxorubicin model and sectioned to immunostain for HMGB1, loss of which indicates necrosis. Percentage of nuclei that lost HMGB1 per field.
Patients typically receive several “cycles” of doxorubicin administered at lower doses. The exact protocol depends on the cancer being treated. For example, some leukemias are treated with 4 cycles of 60 mg/m^2 (which would be the equivalent of 1.5 mg/kg) IV administered every 21-28 days. […] Based on this experience, a chronic protocol was used in which mice receive 3 mg/kg doxorubicin IP every other day×8 doses (i.e. over a two-week period) for a cumulative dose of 24 mg/kg.

[16] = liposome release, minimum of 4 inhibitor concentrations around the IC50, read-out: Measured IC 50/μM
[17] = predicted from normalized inhibition values (5 and 10 μM, normalized to BAI1) correlated with measured IC50 values, read-out: Predicted IC50/μM

T1 sequence (Q07813 whole entry, the tested form may be a part): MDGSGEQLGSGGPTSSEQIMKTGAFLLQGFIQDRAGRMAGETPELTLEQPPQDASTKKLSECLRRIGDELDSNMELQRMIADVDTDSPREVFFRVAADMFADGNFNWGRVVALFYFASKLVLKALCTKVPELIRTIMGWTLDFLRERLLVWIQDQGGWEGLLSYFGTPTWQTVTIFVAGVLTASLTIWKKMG
Chain of BAX (Homo sapiens, UniProt Q07812) (Q07812 whole entry): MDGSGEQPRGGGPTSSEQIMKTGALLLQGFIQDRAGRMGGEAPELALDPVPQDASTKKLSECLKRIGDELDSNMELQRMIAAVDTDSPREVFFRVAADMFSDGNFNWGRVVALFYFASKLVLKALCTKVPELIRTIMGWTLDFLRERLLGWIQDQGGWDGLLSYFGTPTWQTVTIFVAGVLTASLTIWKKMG
Chain of recombinant, purified BAX (Q07812 whole entry): as above

fluorophore release by compound alone ([1]; compound alone, without BAX/tBID): do not stimulate fluorophore release
SMILES: OC(CN1CCN(CCCc2ccccc2)CC1)Cn1c2ccc(Br)cc2c2cc(Br)ccc21 (stereo not drawn) [BAI-3]
inhibition of membrane permeabilization induced by tBID-activated BAX ([1]; FIG. 2): not effective to inhibit tBID-induced BAX activation

IC50 [1, 16]: 40 µM
IC50 [1, 17]: > 20 µM
BAX binding relative to BAI-1 [2]: less BAX binding than BAI-1
fraction unbound [5]: 0.106
half-life ([7]; heart tissue, read-out: half-life in heart tissue (converted)): ~3.5 h
half-life ([7]; plasma, read-out: half-life in plasma (converted)): ~3.5 h
half-life [8]: 3.5 h
SMILES: OC(CN1CCNCC1)Cn1c2ccccc2c2ccccc21 (stereo not drawn) [BAI-A1]
ability to protect neonatal cardiomyocytes against hypoxia, versus BAI-1 ([3]; not shown): only modestly decreased
inhibition of hypoxia-induced neonatal cardiomyocyte death [3]: inhibit necrosis in cardiomyocytes in a dose-dependent manner
inhibition of adult cardiomyocyte necrosis ([4]; hypoxia and reoxygenation (H/R)): inhibit necrosis in cardiomyocytes in a dose-dependent manner
ability to protect adult cardiomyocytes against hypoxia/reoxygenation, versus BAI-1 ([4]; not shown): only modestly decreased
BAX conformational activation in vivo [6]: potently blocks BAX conformational activation

IC50 [1, 17]: 9.7 µM
SMILES: OCCN(CCO)CC(O)Cn1c2ccc(Cl)cc2c2cc(Cl)ccc21 (stereo not drawn) [BAI-A9]

IC50 [1, 17]: 10.8 µM
SMILES: OCC(O)Cn1c2ccc(Br)cc2c2cc(Br)ccc21 (stereo not drawn) [BAI-A10]

IC50 [1, 17]: 10.4 µM
SMILES: O=C(O)CCn1c2ccc(Br)cc2c2cc(Br)ccc21 [BAI-A11]

IC50 [1, 17]: 8.8 µM
SMILES: OCCNCC(O)Cn1c2ccc(Br)cc2c2cc(Br)ccc21 (stereo not drawn) [BAI-A12]

IC50 [1, 16]: 13 µM
IC50 [1, 17]: 13.8 µM
SMILES: CN1CCN(CC(O)CN2c3ccccc3Sc3ccccc32)CC1 (stereo not drawn) [BAI-A13]

IC50 [1, 17]: 15.3 µM
SMILES: OCCN(CCO)CC(O)CN1c2ccccc2Sc2ccccc21 (stereo not drawn) [BAI-A14]

IC50 [1, 16]: 6 µM
IC50 [1, 17]: 11.7 µM
SMILES: OCCN1CCN(CCCN2c3ccccc3Sc3ccccc32)CC1 [BAI-A15]

IC50 [1, 16]: 18 µM
SMILES: OC(CN1CCNCC1)Cn1c2ccc(F)cc2c2cc(F)ccc21 (stereo not drawn) [BAI-A16]

IC50 [1, 16]: 27 µM
SMILES: Cc1ccc2c(c1)c1cc(C)ccc1n2CC(O)CN1CCNCC1 (stereo not drawn) [BAI-A17]

IC50 [1, 16]: 15 µM
SMILES: OC(CN1CCNCC1)Cn1c2ccc(C(F)(F)F)cc2c2cc(C(F)(F)F)ccc21 (stereo not drawn) [BAI-A18]

IC50 [1, 16]: 26 µM
BAX conformational activation in vivo [6]: inhibition of BAX activation in vivo
SMILES: Cc1ccc(N(CC(O)CN2CCNCC2)c2ccc(C)cc2)cc1 (stereo not drawn) [BAI-A19]
inhibition of hypoxia-induced neonatal cardiomyocyte death [3]: potently inhibits primary neonatal cardiomyocyte death induced by hypoxia

IC50 [1, 16]: > 100 µM
SMILES: Cc1cn(CC(O)CN2CCNCC2)c2ccccc12 (stereo not drawn) [BAI-A20]
inhibition of hypoxia-induced neonatal cardiomyocyte death [3]: does not

IC50 [1, 16]: 4.5 µM
SMILES: OC(CN1CCNCC1)CN(c1ccc(Br)cc1)c1ccc(Br)cc1 (stereo not drawn) [BAI-A21]
inhibition of hypoxia-induced neonatal cardiomyocyte death [3]: inhibit necrosis in cardiomyocytes in a dose-dependent manner

IC50 [1, 16]: 11 µM
BAX translocation to the mitochondria [9]: A similar result was observed
fraction unbound [11]: 0.044
AUC(0-t) ([12]; parameter and unit are drawings, read-out: AUClast: area under the curve, calculated to the last observable time point): 390 ± 42.7 ng·h/mL
MRT last ([12]; parameter and unit are drawings, read-out: MRTlast: mean residence time, calculated to the last observable time point): 2.15 h
Tmax ([12]; parameter and unit are drawings, read-out: tmax: time of maximum plasma concentration): 0 h
Vd ([12]; parameter is a drawing, read-out: Vss: steady state volume of distribution): 10.5 L/kg
AUC(0-inf) ([12]; unit is a drawing): 524 ng·h/mL
Cmax ([12]; unit is a drawing): 318 ng/mL
clearance ([12]; unit is a drawing): 31.8 mL/min/kg
half-life ([12]; unit is a drawing): 5.04 h
C0 ([12]; unit is a drawing, read-out: C0: maximum plasma concentration extrapolated to t=0): 318 ng/mL
half-life [8]: 5 h
SMILES: OC(CN1CCNCC1)CN(c1ccccc1)c1ccc(Br)cc1 (stereo not drawn) [BAI-A22, 1-((4-bromophenyl)(phenyl)amino)-3-(piperazin-1-yl)propan-2-ol]
nuclear fragmentation [10]: Nuclear fragmentation was also inhibited
inhibition of hypoxia-induced neonatal cardiomyocyte death [3]: potently inhibits primary neonatal cardiomyocyte death induced by hypoxia
apoptosis in mouse embryonic fibroblasts [13]: inhibits doxorubicin-induced apoptosis in mouse embryonic fibroblasts
heart function (ejection fraction) in doxorubicin-treated mice [14]: therapeutically effective
cardiac dysfunction (fractional shortening, ejection fraction, systolic wall thickening) [15]: significantly protected the heart from cardiac dysfunction
